# Test results as given in patent US7723368B2, “Amino-5-[4-(difluoromethoxy)phenyl]-5-phenylimidazolone compounds for the inhibition of beta-secretase” (Wyeth LLC, priority 2007, dated 2010).
# pIC50: −log10 of the molar value.
# Target: human BACE1 (Homo sapiens, UniProt P56817)
# Assay: BACE1 fluorescent kinetic assay (cleavage of peptide substrate WABC-6)
# Assay type: biochemical
# Settings: Activity Table, Examples 1-108; 10 nM enzyme, 25 μM substrate WABC-6, pH 4.5, room temperature
# Protocol: Evaluation of BACE1 Binding Affinity of Test Compounds
# Fluorescent Kinetic Assays
# Dilution and mixing steps: total reaction volume: 100 μL
# 100 μM substrate dilution in 1×PBS was prepared, and
# Fluorescence Readings: Readings at λex 320 nm and λem 420 nm are taken every 40 sec for 30 min at room temperature and the linear slope for substrate cleavage rate (vi) determined.
# human BACE1, sequence (P56817 46-501): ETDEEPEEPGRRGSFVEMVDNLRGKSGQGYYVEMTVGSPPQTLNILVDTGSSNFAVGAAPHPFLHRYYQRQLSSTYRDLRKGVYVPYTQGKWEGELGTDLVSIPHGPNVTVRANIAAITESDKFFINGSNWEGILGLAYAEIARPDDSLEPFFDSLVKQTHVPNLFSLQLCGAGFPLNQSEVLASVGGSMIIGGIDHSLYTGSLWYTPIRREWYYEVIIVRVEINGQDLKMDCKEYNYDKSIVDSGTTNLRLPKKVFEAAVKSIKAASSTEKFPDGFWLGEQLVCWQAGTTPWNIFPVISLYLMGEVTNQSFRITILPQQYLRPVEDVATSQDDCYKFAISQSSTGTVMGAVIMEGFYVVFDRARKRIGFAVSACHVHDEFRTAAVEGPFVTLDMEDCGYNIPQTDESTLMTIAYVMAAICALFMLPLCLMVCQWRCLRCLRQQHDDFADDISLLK
row,Structure (SMILES),pIC50
1,"CN1C(=O)C(c2ccc(OC(F)F)cc2)(c2cccc(C3CC(=CCO)C3)c2)N=C1N (stereo not drawn) [Example 56, 2-amino-5-[4-(difluoromethoxy)phenyl]-5-{3-[3-(2-hydroxyethylidene)cyclobutyl]phenyl}-3-methyl-3,5-dihydro-4H-imidazol-4-one]",< 6.00
2,"CN1C(=O)C(c2ccc(OC(F)F)cc2)(c2cccc(C3CC(CCF)C3)c2)N=C1N (stereo not drawn) [Example 58, 2-amino-5-[4-(difluoromethoxy)phenyl]-5-{3-[3-(2-fluoroethyl)cyclobutyl]phenyl}-3-methyl-3,5-dihydro-4H-imidazol-4-one]",6.00 to 6.96
3,"COCCC1CC(c2cccc(C3(c4ccc(OC(F)F)cc4)N=C(N)N(C)C3=O)c2)C1 (stereo not drawn) [Example 59, 2-amino-5-[4-(difluoromethoxy)phenyl]-5-{3-[3-(2-methoxyethyl)cyclobutyl]phenyl}-3-methyl-3,5-dihydro-4H-imidazol-4-one]",6.00 to 6.96
4,"CN1C(=O)C(c2ccc(OC(F)F)cc2)(c2cccc(Nc3ccccc3)c2)N=C1N (stereo not drawn) [Example 60, 2-amino-5-(3-anilinophenyl)-5-[4-(difluoromethoxy)phenyl]-3-methyl-3,5-dihydro-4H-imidazol-4-one]",6.00 to 6.96
5,"CC(C)NCc1cccc(C2(c3ccc(OC(F)F)cc3)N=C(N)N(C)C2=O)c1 (stereo not drawn) [Example 61, 2-Amino-5-(4-difluoromethoxy-phenyl)-5-[3-(isopropylamino-methyl)-phenyl]-3-methyl-3,5-dihydro-imidazol-4-one]",6.00 to 6.96
6,"CN(C)Cc1cccc(C2(c3ccc(OC(F)F)cc3)N=C(N)N(C)C2=O)c1 (stereo not drawn) [Example 62, 2-amino-5-[4-(difluoromethoxy)phenyl]-5-{3-[(dimethylamino)-methyl]phenyl}-3-methyl-3,5-dihydro-4H-imidazol-4-one]",< 6.00
7,"CCNCc1cccc(C2(c3ccc(OC(F)F)cc3)N=C(N)N(C)C2=O)c1 (stereo not drawn) [Example 63, 2-amino-5-[4-(difluoromethoxy)phenyl]-5-{3-[(ethylamino)methyl]phenyl}-3-methyl-3,5-dihydro-4H-imidazol-4-one]",6.00 to 6.96
8,"CCCNCc1cccc(C2(c3ccc(OC(F)F)cc3)N=C(N)N(C)C2=O)c1 (stereo not drawn) [Example 64, 2-amino-5-[4-(difluoromethoxy)phenyl]-3-methyl-5-{3-[(propylamino)-methyl]phenyl}-3,5-dihydro-4H-imidazol-4-one]",6.00 to 6.96
9,"CCCCNCc1cccc(C2(c3ccc(OC(F)F)cc3)N=C(N)N(C)C2=O)c1 (stereo not drawn) [Example 65, 2-amino-5-{3-[(butylamino)methyl]phenyl}-5-[4-(difluoromethoxy)phenyl]-3-methyl-3,5-dihydro-4H-imidazol-4-one]",6.00 to 6.96
10,"CN1C(=O)C(c2ccc(OC(F)F)cc2)(c2cccc(CN3CCCC3)c2)N=C1N (stereo not drawn) [Example 66, 2-amino-5-[4-(difluoromethoxy)phenyl]-3-methyl-5-[3-(pyrrolidin-1-ylmethyl)phenyl]-3,5-dihydro-4H-imidazol-4-one]",< 6.00
11,"CN1C(=O)C(c2ccc(OC(F)F)cc2)(c2ccc(OC(F)F)cc2)N=C1N [Example 67, 2-amino-5,5-bis[4-(difluoromethoxy)phenyl]-3-methyl-3,5-dihydro-4H-imidazol-4-one]",< 6.00
12,"CN1C(=O)C(c2ccc(OC(F)F)cc2)(c2cccc(CNCc3ccco3)c2)N=C1N (stereo not drawn) [Example 68, 2-amino-5-[4-(difluoromethoxy)phenyl]-5-(3-{[(2-furylmethyl)-amino]methyl}phenyl)-3-methyl-3,5-dihydro-4H-imidazol-4-one]",6.00 to 6.96
13,"C=CC[C@@H](C)c1cccc(C2(c3ccc(OC(F)F)cc3)N=C(N)N(C)C2=O)c1 (stereo partly drawn) [Example 69, 2-amino-4-(4-(difluoromethoxy)phenyl)-1-methyl-4-(3-((R)-pent-4-en-2-yl)phenyl)-1H-imidazol-5(4H)-one]",6.00 to 6.96
14,"CN1C(=O)C(c2ccc(OC(F)F)cc2)(c2cccc(C3CC3)c2)N=C1N (stereo not drawn) [Example 70, 2-amino-4-(3-cyclopropylphenyl)-4-(4-(difluoromethoxy)phenyl)-1-methyl-1H-imidazol-5(4H)-one]",< 6.00
15,"COC/C=C(\C)c1cccc(C2(c3ccc(OC(F)F)cc3)N=C(N)N(C)C2=O)c1 (stereo not drawn) [Example 71, (E)-2-amino-4-(4-(difluoromethoxy)phenyl)-4-(3-(4-methoxybut-2-en-2-yl)phenyl)-1-methyl-1H-imidazol-5(4H)-one]",6.00 to 6.96
16,"Cc1cccc(C2(c3ccc(OC(F)F)cc3)N=C(N)N(C)C2=O)c1 (stereo not drawn) [Example 74, 2-Amino-5-[4-(difluoromethoxy)phenyl]-3-methyl-5-(3-methylphenyl)-3,5-dihydro-4H-imidazol-4-one]",6.00 to 6.96
17,"CC=Cc1cc(C2(c3ccc(OC(F)F)cc3)N=C(N)N(C)C2=O)ccc1F (stereo not drawn) [Example 75A, 2-amino-5-[4-(difluoromethoxy)phenyl]-5-(4-fluoro-3-prop-1-en-1-ylphenyl)-3-methyl-3,5-dihydro-4H-imidazol-4-one]",6.00 to 6.96
18,"C/C=C\c1cc(C2(c3ccc(OC(F)F)cc3)N=C(N)N(C)C2=O)ccc1F (stereo not drawn) [Example 75B, 2-amino-5-[4-(difluoromethoxy)phenyl]-5-{4-fluoro-3-[(1Z)-prop-1-en-1-yl]phenyl}-3-methyl-3,5-dihydro-4H-imidazol-4-one]",6.00 to 6.96
19,"C/C=C/c1cc(C2(c3ccc(OC(F)F)cc3)N=C(N)N(C)C2=O)ccc1F (stereo not drawn) [Example 75C, 2-amino-5-[4-(difluoromethoxy)phenyl]-5-{4-fluoro-3-[(1E)-prop-1-en-1-yl]phenyl}-3-methyl-3,5-dihydro-4H-imidazol-4-one]",< 6.00
20,"C/C=C\c1cc([C@]2(c3ccc(OC(F)F)cc3)N=C(N)N(C)C2=O)ccc1F [Example 76A, (5S)-2-amino-5-[4-(difluoromethoxy)phenyl]-5-{4-fluoro-3-[(1Z)-prop-1-en-1-yl]phenyl}-3-methyl-3,5-dihydro-4H-imidazol-4-one]",< 6.00
21,"C/C=C\c1cc([C@@]2(c3ccc(OC(F)F)cc3)N=C(N)N(C)C2=O)ccc1F [Example 76B, (5R)-2-amino-5-[4-(difluoromethoxy)phenyl]-5-{4-fluoro-3-[(1Z)-prop-1-en-1-yl]phenyl}-3-methyl-3,5-dihydro-4H-imidazol-4-one]",< 6.00
22,"C/C=C/c1cc([C@]2(c3ccc(OC(F)F)cc3)N=C(N)N(C)C2=O)ccc1F [Example 77A, (5S)-2-amino-5-[4-(difluoromethoxy)phenyl]-5-{4-fluoro-3-[(1E)-prop-1-en-1-yl]phenyl}-3-methyl-3,5-dihydro-4H-imidazol-4-one]",< 6.00
23,"CN1C(=O)C(c2ccc(OC(F)F)cc2)(c2cccc(O)c2)N=C1N (stereo not drawn) [Example 81, 2-Amino-5-[4-(difluoromethoxy)phenyl]-5-(3hydroxyphenyl)-3-methyl-3,5-dihydro-4H-imidazol-4-one]",6.00 to 6.96
24,"CN1C(=O)C(c2ccc(OC(F)F)cc2)(c2ccc(F)c(N3CCOCC3)c2)N=C1N (stereo not drawn) [Example 86, 2-amino-4-(4-(difluoromethoxy)phenyl)-4-(4-fluoro-3-morpholinophenyl)-1-methyl-1H-imidazol-5(4H)-one]",6.00 to 6.96
25,"CN1C(=O)C(c2ccc(OC(F)F)cc2)(c2cccc(Cc3ccco3)c2)N=C1N (stereo not drawn) [Example 88, 2-amino-4-(4-(difluoromethoxy)phenyl)-4-(3-(furan-2-ylmethyl)phenyl)-1-methyl-1H-imidazol-5(4H)-one]",6.00 to 6.96
26,"CN1C(=O)[C@](c2ccc(OC(F)F)cc2)(c2ccc(F)c(OCCC(F)F)c2)N=C1N [Example 93, (5S)-2-Amino-5-[4-(difluoromethoxy)phenyl]-5-[3-(3,3-difluoropropoxy)-4-fluorophenyl]-3-methyl-3,5-dihydro-4H-imidazol-4-one]",6.00 to 6.96

# Other lines, results leading:
row,pIC50,Structure (SMILES)
1,6.00 to 6.96,CN1C(=O)C(c2ccc(OC(F)F)cc2)(c2cccc(NC(=O)c3cccs3)c2)N=C1N (stereo not drawn) [Example 42]
2,> 7.00,CCCNc1cccc(C2(c3ccc(OC(F)F)cc3)N=C(N)N(C)C2=O)c1 (stereo not drawn) [Example 43]
3,> 7.00,CCCCNc1cccc(C2(c3ccc(OC(F)F)cc3)N=C(N)N(C)C2=O)c1 (stereo not drawn) [Example 44]
4,> 7.00,CC(C)CNc1cccc(C2(c3ccc(OC(F)F)cc3)N=C(N)N(C)C2=O)c1 (stereo not drawn) [Example 45]
5,6.00 to 6.96,CC(C)Nc1cccc(C2(c3ccc(OC(F)F)cc3)N=C(N)N(C)C2=O)c1 (stereo not drawn) [Example 46]
6,> 7.00,CN1C(=O)C(c2ccc(OC(F)F)cc2)(c2cccc(NC3CCCC3)c2)N=C1N (stereo not drawn) [Example 47]
7,6.00 to 6.96,CN1C(=O)C(c2ccc(OC(F)F)cc2)(c2cccc(NC3CCCCC3)c2)N=C1N (stereo not drawn) [Example 48]
8,6.00 to 6.96,CN1C(=O)C(c2ccc(OC(F)F)cc2)(c2cccc(NC3CCC3)c2)N=C1N (stereo not drawn) [Example 50]
9,> 7.00,CN1C(=O)C(c2ccc(OC(F)F)cc2)(c2cccc(NCc3ccco3)c2)N=C1N (stereo not drawn) [Example 51]
10,> 7.00,"CCOCCC#Cc1cccc(C2(c3ccc(OC(F)F)cc3)N=C(N)N(C)C2=O)c1 (stereo not drawn) [Example 73, 2-Amino-5-[4-(difluoromethoxy)phenyl]-5-[3-(4-ethoxybut-1-yn-1-yl)phenyl]-3-methyl-3,5-dihydro-4H-imidazol-4-one]"
11,> 7.00,"C/C=C/c1cc([C@@]2(c3ccc(OC(F)F)cc3)N=C(N)N(C)C2=O)ccc1F [Example 77B, (5R)-2-amino-5-[4-(difluoromethoxy)phenyl]-5-{4-fluoro-3-[(1E)-prop-1-en-1-yl]phenyl}-3-methyl-3,5-dihydro-4H-imidazol-4-one]"
12,> 7.00,"C=CC#Cc1cc(C2(c3ccc(OC(F)F)cc3)N=C(N)N(C)C2=O)ccc1F (stereo not drawn) [Example 87, 2-amino-4-(3-(but-3-en-1-ynyl)-4-fluorophenyl)-4-(4-(difluoromethoxy)phenyl)-1-methyl-1H-imidazol-5(4H)-one]"
13,> 7.00,"CN1C(=O)C(c2ccc(OC(F)F)cc2)(c2ccc(F)c(OCCC(F)F)c2)N=C1N (stereo not drawn) [Example 92, 2-Amino-5-[4-(difluoromethoxy)phenyl]-5-[3-(3,3-difluoropropoxy)-4-fluorophenyl]-3-methyl-3,5-dihydro-4H-imidazol-4-one]"
